Earlier results as cited in US10815533B2, “Biomarker for diagnosing anticancer drug resistance of gastric cancer and use thereof” (SAMSUNG LIFE PUBLIC WELFARE FOUNDATION, priority 2017, dated 2020).

Assays:
[1] = test system: gastric cancer cell line in which FGFR2 was amplified; conditions: preclinical result
[2] = test system: FGFR2b+gastric cancer; conditions: phase I clinical trial, 3 out of 9

Molecule | antitumor efficacy [1] | response rate [2]
CCN1CCN(c2ccc(Nc3cc(N(C)C(=O)Nc4c(Cl)c(OC)cc(OC)c4Cl)ncn3)cc2)CC1 [BGJ398] | strong antitumor efficacy | 
FPA144: selective monoclonal antibody against the FGFR2b subtype (antibody, chains of the INN, looked up, V domains shown) VH: QVQLVQSGAEVKKPGSSVKVSCKASGYIFTTYNVHWVRQAPGQGLEWIGSIYPDNGDTSYNQNFKGRATITADKSTSTAYMELSSLRSEDTAVYYCARGDFAYWGQGTLVTVSS VL: DIQMTQSPSSLSASVGDRVTITCKASQGVSNDVAWYQQKPGKAPKLLIYSASYRYTGVPSRFSGSGSGTDFTFTISSLQPEDIATYYCQQHSTTPYTFGQGTKLEIK |  | 33%
